Some targets named below: ALK (Homo sapiens, UniProt Q9UM73); PIP5K1A (Homo sapiens, UniProt Q99755); PIM1 (Homo sapiens, UniProt P11309); PHKG2 (Homo sapiens, UniProt P15735); PIK3CD (Homo sapiens, UniProt O00329); WEE1 (Homo sapiens, UniProt P30291); PLK3 (Homo sapiens, UniProt Q9H4B4); BTK (Homo sapiens, UniProt Q06187).
Holding throughout (experiment): biochemical
Common to all, as to set-up: DiscoverX KINOMEscan scanMAX competition binding panel, single concentration, percent of control; remaining binding: dose or concentration left out as unconfirmed
Holding throughout (conditions): KINOMEscan binding, percent of control; read-out: Table S4_SCANMAX REPORT - related to Fig. 1 / Percent Control

The next experiment addresses T1, PKAC-alpha (Homo sapiens, UniProt P17612).
T1 construct: gene PRKACA

In another experiment the target is T2, MLCK (Homo sapiens, UniProt Q32MK0).
T2 construct: gene MYLK3

For a further experiment, the target named is T3, NIM1 (Homo sapiens, UniProt Q8IY84).
T3 construct: gene NIM1K
T3 sequence (Q8IY84 whole entry): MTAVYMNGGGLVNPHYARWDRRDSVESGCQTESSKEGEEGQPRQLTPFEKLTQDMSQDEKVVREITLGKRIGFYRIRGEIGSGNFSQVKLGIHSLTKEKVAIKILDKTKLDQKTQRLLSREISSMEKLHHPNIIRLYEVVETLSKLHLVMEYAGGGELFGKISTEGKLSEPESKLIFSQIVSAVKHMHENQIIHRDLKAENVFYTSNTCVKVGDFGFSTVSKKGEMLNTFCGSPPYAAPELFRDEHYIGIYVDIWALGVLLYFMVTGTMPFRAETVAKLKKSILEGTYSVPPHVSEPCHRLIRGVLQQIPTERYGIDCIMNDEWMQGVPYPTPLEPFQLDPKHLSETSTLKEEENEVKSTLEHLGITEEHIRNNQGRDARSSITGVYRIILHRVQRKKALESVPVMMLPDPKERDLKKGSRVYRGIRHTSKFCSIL

WEE1, sequence (P30291 whole entry): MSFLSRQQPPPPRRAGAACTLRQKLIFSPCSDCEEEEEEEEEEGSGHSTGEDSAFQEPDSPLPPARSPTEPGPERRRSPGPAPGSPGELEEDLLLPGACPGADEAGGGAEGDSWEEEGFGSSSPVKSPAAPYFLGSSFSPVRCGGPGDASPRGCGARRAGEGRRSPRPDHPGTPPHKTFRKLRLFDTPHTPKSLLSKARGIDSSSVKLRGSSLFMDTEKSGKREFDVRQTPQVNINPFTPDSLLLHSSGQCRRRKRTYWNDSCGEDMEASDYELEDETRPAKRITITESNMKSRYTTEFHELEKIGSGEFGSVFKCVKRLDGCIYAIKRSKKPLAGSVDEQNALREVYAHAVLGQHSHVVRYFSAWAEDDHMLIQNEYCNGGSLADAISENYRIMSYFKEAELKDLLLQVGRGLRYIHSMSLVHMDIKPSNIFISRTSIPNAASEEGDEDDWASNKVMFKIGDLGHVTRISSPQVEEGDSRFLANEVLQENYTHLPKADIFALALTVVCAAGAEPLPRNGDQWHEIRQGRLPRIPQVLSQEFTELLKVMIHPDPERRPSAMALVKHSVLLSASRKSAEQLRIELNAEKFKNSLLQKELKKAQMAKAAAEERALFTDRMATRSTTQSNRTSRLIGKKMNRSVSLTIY
PIM1, sequence (P11309 whole entry): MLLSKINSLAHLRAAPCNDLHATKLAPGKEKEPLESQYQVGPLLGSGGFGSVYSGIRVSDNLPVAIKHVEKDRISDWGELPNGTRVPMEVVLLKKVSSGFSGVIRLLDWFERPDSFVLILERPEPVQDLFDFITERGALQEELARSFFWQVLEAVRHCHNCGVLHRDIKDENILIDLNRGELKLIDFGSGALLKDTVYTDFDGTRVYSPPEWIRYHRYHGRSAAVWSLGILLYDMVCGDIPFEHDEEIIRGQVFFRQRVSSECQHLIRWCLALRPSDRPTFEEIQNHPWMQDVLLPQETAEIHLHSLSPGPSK
ALK, sequence (Q9UM73 whole entry): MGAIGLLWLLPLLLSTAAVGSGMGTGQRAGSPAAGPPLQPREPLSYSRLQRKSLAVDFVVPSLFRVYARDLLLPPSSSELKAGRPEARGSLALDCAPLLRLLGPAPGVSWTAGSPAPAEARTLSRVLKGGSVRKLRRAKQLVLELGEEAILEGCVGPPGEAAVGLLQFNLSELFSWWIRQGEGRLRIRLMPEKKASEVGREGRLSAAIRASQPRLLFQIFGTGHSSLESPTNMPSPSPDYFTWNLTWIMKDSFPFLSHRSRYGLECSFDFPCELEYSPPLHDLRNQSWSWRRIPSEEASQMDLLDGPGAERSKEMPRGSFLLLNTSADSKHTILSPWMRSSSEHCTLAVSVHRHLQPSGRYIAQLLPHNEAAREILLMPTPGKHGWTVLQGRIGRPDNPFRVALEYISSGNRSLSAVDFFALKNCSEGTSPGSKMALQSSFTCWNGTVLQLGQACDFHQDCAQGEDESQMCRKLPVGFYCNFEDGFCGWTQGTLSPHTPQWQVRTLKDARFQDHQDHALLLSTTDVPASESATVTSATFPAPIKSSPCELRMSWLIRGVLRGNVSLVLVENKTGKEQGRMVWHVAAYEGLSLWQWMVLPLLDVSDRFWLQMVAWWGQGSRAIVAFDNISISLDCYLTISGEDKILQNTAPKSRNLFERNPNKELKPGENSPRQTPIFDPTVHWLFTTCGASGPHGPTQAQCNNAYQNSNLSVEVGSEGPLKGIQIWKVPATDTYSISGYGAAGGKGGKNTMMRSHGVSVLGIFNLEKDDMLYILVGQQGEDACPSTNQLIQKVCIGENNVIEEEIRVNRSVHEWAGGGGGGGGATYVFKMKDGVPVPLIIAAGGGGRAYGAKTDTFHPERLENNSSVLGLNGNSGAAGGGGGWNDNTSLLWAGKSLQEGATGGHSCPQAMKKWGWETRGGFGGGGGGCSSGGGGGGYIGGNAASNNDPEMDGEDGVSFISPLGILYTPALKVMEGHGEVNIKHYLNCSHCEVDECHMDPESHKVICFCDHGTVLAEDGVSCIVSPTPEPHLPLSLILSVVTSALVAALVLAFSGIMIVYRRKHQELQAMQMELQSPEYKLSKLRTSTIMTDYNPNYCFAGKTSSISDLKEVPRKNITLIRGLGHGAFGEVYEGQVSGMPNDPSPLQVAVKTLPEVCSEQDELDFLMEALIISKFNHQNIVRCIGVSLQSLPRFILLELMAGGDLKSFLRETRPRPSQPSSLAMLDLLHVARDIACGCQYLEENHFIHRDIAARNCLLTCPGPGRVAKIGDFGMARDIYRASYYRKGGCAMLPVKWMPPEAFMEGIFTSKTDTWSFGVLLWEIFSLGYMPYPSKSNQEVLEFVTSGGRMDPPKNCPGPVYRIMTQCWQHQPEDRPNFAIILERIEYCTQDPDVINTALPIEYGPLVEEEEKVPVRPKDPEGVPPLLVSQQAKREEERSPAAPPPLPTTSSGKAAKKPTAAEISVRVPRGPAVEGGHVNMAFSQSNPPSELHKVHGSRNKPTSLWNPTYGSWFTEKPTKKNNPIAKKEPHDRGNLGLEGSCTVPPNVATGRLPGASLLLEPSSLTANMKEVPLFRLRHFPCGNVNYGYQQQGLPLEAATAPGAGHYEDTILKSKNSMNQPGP
PHKG2, sequence (P15735 whole entry): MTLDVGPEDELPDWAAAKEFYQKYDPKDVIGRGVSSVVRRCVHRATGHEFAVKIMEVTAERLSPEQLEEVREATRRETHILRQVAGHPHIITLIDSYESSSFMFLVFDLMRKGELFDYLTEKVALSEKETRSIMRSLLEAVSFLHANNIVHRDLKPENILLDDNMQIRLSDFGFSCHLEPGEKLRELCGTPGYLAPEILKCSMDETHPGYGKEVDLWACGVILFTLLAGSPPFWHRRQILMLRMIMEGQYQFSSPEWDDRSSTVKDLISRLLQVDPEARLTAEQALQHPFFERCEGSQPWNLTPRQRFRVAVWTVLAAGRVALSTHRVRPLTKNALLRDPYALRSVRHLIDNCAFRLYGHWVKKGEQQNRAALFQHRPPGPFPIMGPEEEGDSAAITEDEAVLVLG
BTK, sequence (Q06187 whole entry): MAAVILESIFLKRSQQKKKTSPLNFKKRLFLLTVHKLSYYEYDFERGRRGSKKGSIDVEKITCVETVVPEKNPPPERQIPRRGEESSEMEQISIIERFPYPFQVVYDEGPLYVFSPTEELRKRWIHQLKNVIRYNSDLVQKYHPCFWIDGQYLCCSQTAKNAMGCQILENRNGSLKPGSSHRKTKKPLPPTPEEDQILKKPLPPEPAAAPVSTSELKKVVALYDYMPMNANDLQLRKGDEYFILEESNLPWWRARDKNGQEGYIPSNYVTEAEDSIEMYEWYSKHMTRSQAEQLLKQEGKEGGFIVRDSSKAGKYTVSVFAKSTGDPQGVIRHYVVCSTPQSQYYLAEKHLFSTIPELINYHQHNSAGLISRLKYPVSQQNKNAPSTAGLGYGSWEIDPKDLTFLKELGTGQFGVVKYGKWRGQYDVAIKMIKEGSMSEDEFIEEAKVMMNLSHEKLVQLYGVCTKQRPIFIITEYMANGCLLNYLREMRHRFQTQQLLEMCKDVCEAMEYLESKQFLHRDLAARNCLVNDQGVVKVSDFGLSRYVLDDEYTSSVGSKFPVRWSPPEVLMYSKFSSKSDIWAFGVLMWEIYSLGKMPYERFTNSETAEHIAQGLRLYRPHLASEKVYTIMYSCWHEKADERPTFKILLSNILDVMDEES
PLK3, sequence (Q9H4B4 whole entry): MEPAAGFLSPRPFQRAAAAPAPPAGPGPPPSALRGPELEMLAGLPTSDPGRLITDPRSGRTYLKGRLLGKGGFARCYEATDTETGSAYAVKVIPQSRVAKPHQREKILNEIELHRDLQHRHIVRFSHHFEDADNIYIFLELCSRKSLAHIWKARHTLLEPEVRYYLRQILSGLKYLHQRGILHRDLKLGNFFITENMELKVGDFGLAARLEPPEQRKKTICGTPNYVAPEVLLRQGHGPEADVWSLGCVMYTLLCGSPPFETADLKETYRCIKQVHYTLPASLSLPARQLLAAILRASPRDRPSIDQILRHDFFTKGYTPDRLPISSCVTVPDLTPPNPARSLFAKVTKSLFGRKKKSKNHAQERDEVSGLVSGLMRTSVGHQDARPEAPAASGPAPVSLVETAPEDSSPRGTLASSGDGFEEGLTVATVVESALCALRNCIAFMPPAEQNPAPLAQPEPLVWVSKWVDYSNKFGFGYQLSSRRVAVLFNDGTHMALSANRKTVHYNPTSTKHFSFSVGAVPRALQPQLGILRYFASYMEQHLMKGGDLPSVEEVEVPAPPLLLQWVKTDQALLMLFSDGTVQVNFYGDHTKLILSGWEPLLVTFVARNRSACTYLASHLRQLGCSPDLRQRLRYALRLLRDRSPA

As for `c1ccc2c(c1)Sc1ccccc1N2CCN1CCOCC1` [J54], the remaining binding on ALK worked out at 59%; at PIP5K1A, 46%; at PKAC-alpha it was 98%; at PIM1, 81%; on PHKG2, 94%; on PIK3CD, 100%. In addition, the remaining binding was found to be 79% on MLCK; 78% on WEE1; 100% on PLK3; 97% on BTK; 100% at NIM1.

For the origin of these results see publication PMC7486443, “Generation of Phenothiazine with Potent Anti-TLK1 Activity for Prostate Cancer Therapy” (iScience, 2020).
